From ChEMBL document CHEMBL5321287, “Discovery, Synthesis, and Evaluation of Novel Dual Inhibitors of a Vascular Endothelial Growth Factor Receptor and Poly(ADP-Ribose) Polymerase for BRCA Wild-Type Breast Cancer Therapy” (J Med Chem, 2023) come the findings set out here.

Active and inactive are the calls of the source. No cut-off for these calls is given here.

In the first assay the target is Vascular endothelial growth factor receptor 2 (Homo sapiens, UniProt P35968). The experiment in a line: Inhibition of VEGFR2 (unknown origin) by Z'-Lyte kinase assay.
Vascular endothelial growth factor receptor 2, sequence (P35968 whole entry): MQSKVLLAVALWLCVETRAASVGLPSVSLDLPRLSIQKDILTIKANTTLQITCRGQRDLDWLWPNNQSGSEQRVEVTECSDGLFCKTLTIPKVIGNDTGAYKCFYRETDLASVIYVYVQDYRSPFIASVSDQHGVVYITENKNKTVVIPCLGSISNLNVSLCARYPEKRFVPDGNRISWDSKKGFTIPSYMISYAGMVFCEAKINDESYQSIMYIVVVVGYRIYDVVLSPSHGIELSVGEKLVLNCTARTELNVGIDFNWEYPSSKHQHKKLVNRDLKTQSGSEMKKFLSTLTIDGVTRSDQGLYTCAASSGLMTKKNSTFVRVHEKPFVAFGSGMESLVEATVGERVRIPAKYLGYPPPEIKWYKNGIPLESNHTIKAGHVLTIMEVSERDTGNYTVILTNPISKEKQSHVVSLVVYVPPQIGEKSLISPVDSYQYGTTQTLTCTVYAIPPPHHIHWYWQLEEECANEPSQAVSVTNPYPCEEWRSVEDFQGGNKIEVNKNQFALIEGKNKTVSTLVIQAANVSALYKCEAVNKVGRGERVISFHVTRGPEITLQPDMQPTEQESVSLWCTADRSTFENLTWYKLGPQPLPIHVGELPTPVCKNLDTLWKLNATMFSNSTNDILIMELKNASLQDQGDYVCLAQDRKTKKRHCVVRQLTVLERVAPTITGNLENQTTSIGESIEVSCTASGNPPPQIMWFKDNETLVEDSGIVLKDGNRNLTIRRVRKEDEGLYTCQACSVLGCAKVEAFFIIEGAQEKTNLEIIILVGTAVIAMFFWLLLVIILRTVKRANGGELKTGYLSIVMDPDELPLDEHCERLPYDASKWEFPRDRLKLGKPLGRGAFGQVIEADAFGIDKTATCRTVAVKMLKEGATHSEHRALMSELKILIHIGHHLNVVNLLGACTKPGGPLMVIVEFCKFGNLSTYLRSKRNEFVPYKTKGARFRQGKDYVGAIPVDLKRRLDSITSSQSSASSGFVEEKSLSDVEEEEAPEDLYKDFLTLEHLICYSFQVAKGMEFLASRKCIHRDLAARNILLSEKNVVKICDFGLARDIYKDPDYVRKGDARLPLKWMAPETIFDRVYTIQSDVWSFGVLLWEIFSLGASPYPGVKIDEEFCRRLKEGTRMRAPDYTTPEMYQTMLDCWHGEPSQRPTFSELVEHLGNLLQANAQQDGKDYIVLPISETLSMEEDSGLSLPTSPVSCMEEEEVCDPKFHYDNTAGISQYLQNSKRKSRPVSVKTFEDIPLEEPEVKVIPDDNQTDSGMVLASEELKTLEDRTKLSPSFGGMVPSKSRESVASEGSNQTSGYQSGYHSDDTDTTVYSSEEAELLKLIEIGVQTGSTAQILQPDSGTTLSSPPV
Conditions: not given
As to `COc1cc(Nc2nccc(N(C)c3ccc4c(C)n(C)nc4c3)n2)ccc1-c1nc2c(C(N)=O)cccc2[nH]1`, the IC50 turned out to be 169 nM.

On to `COc1cc(Nc2nccc(N(C)c3ccc4c(C)n(C)nc4c3)n2)ccc1-c1nc2cc(F)c(F)cc2[nH]1`, for which half-maximal inhibition (IC50) required 165 nM. Same read-out and setting: next, `Cc1c2ccc(N(C)c3ccnc(Nc4ccc(C(=O)Nc5nc6c(C(N)=O)cccc6[nH]5)cc4)n3)cc2nn1C`: 260 nM; `Cc1c2ccc(N(C)c3ccnc(Nc4ccc(-c5ccc(-c6nc7c(C(N)=O)cccc7[nH]6)cc5)cc4)n3)cc2nn1C`: 308 nM. Turning to `Cc1c2ccc(N(C)c3ccnc(Nc4ccc(-c5nc6ccccc6[nH]5)c(C(F)(F)F)c4)n3)cc2nn1C`, the IC50 is 213 nM. The same measure, in the same setting: to `CN(c1ccc(Cl)cc1)c1ccnc(Nc2ccc(-c3nc4cc(F)c(F)cc4[nH]3)cc2)n1` belongs 427 nM. With `CN(c1ccc(N2CCOCC2)cc1)c1ccnc(Nc2ccc(-c3nc4c(C(N)=O)cccc4[nH]3)cc2)n1`, the IC50 is more than 10000 nM.

The target in a further assay is T1, Poly [ADP-ribose] polymerase 1 (Homo sapiens, UniProt P09874). The assay is described as follows: Inhibition of PARP1 (unknown origin).
T1 sequence (P09874 whole entry): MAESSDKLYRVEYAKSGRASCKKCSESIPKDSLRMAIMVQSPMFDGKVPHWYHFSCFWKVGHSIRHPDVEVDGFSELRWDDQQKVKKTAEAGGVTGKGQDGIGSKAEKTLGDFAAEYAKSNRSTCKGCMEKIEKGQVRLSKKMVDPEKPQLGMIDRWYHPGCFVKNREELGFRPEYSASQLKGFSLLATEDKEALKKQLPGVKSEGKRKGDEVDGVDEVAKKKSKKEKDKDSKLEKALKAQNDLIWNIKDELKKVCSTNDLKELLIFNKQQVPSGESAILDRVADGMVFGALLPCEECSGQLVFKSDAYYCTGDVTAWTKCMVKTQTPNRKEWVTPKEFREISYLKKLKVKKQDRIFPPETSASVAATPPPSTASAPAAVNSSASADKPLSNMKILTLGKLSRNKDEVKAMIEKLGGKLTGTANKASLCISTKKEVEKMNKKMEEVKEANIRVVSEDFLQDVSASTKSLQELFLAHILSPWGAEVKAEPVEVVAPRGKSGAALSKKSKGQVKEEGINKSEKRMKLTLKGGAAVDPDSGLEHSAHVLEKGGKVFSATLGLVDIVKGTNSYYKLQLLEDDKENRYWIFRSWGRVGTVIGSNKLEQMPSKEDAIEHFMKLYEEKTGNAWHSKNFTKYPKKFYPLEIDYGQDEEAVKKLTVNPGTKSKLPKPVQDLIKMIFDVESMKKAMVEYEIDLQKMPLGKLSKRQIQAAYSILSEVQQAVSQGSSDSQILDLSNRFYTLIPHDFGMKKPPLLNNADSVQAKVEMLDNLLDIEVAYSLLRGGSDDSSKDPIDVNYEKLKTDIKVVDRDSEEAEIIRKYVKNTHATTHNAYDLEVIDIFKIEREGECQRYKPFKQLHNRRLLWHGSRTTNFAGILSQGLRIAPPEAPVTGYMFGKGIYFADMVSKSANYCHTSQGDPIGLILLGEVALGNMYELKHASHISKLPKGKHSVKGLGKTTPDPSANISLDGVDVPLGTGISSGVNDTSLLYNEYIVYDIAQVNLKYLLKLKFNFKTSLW
Conditions: not given
The compound `Cc1c2ccc(N(C)c3ccnc(Nc4cccc(-c5nc6c(C(N)=O)cccc6[nH]5)c4)n3)cc2nn1C` gave an IC50 of 82.7 nM. On the same count and under the same terms, next, `CC(C)c1ccc(N(C)c2ccnc(Nc3ccc(-c4nc5c(C(N)=O)cccc5[nH]4)cc3)n2)cc1`: 89.7 nM.

The compound `Cc1ccc(Nc2nccc(N(C)c3ccc4c(C)n(C)nc4c3)n2)cc1-c1nc2cc(F)c(F)cc2[nH]1` returned an IC50 of 682 nM. Still for that read-out and setting: to `Cc1c2ccc(N(C)c3ccnc(Nc4ccc(-c5nc6cc(F)c(F)cc6[nH]5)c(Cl)c4)n3)cc2nn1C` belongs 759 nM; to `Cc1c2ccc(N(C)c3ccnc(Nc4ccc(C(=O)Nc5nc6c(C(N)=O)cccc6[nH]5)c(Cl)c4)n3)cc2nn1C`, 166 nM; to `Cc1c2ccc(N(C)c3ccnc(Nc4cc(F)c(-c5nc6c(C(N)=O)cccc6[nH]5)c(F)c4)n3)cc2nn1C`, 342 nM. Same read-out and setting: to `NC(=O)c1cccc2[nH]c(-c3ccc(Nc4nccc(N5CCN(c6ccc(C(F)(F)F)cn6)CC5)n4)cc3)nc12` belongs 98.2 nM; to `Cc1c2ccc(N(C)c3ccnc(Nc4ccc(-c5nc6c(C(N)=O)cccc6[nH]5)c(Cl)c4)n3)cc2nn1C`, 142 nM. In the case of `NC(=O)c1cccc2[nH]c(NC(=O)c3ccc(Nc4nccc(N5CCN(C(=O)c6ccccc6)CC5)n4)cc3)nc12`, the IC50 was found to be 194 nM. On the same count and under the same terms, next, `CN(c1ccc(F)cc1)c1ccnc(Nc2ccc(-c3nc4c(C(N)=O)cccc4[nH]3)cc2)n1`: 130 nM. With `Cc1c2ccc(N(C)c3ccnc(Nc4ccc(C(=O)Nc5nc6c(C(N)=O)cccc6[nH]5)c(C(F)(F)F)c4)n3)cc2nn1C`, inhibition was half-maximal at 345 nM (IC50). The same measure, in the same setting: to `Cc1c2ccc(N(C)c3ccnc(Nc4ccc(-c5ccc(-c6nc7c(C(N)=O)cccc7[nH]6)cc5)cc4)n3)cc2nn1C` belongs 469 nM; to `Cc1c2ccc(N(C)c3ccnc(Nc4ccc(-c5nc6cc(F)c(F)cc6[nH]5)c(C(F)(F)F)c4)n3)cc2nn1C`, 673 nM; to `CN(c1ccc(Cl)cc1)c1ccnc(Nc2ccc(C(=O)Nc3nc4c(C(N)=O)cccc4[nH]3)cc2)n1`, 137 nM. The compound `Cc1c2ccc(N(C)c3ccnc(Nc4ccc(-c5nc6ccccc6[nH]5)c(C(F)(F)F)c4)n3)cc2nn1C` had an IC50 of more than 10000 nM.

`CN(c1ccc(Cl)cc1)c1ccnc(Nc2ccc(-c3nc4cc(F)c(F)cc4[nH]3)cc2)n1` returned an IC50 of 661 nM. On the same count and under the same terms, next, `Cc1c2ccc(N(C)c3ccnc(Nc4ccc(-c5nc6c(C(N)=O)cccc6[nH]5)cc4)n3)cc2nn1C`: 95.7 nM; `CN(c1ccc(N2CCOCC2)cc1)c1ccnc(Nc2ccc(-c3nc4c(C(N)=O)cccc4[nH]3)cc2)n1`: 87 nM.

Another assay concerns MDA-MB-231. The assay is described as follows: Antiproliferative activity against human MDA-MB-231 cells assessed as cell growth inhibition.
Conditions: not given
As to `O=C(c1cc(Cc2n[nH]c(=O)c3ccccc23)ccc1F)N1CCN(C(=O)C2CC2)CC1` [OLAPARIB], the IC50 was more than 10000 nM. As to `Cc1c2ccc(N(C)c3ccnc(Nc4ccc(-c5ccc(-c6nc7c(C(N)=O)cccc7[nH]6)cc5)cc4)n3)cc2nn1C`, the IC50 was more than 10000 nM. The same measure, in the same setting: next, `Cc1c2ccc(N(C)c3ccnc(Nc4ccc(-c5nc6ccccc6[nH]5)c(C(F)(F)F)c4)n3)cc2nn1C`: more than 10000 nM; `CN(c1ccc(Cl)cc1)c1ccnc(Nc2ccc(-c3nc4cc(F)c(F)cc4[nH]3)cc2)n1`: more than 10000 nM; `CN(c1ccc(N2CCOCC2)cc1)c1ccnc(Nc2ccc(-c3nc4c(C(N)=O)cccc4[nH]3)cc2)n1`: 9720 nM.

The next assay deals with MCF7. The assay is described as follows: Antiproliferative activity against human MCF7 cells assessed as cell growth inhibition.
Conditions: not given
As to `O=C(c1cc(Cc2n[nH]c(=O)c3ccccc23)ccc1F)N1CCN(C(=O)C2CC2)CC1` [OLAPARIB], the IC50 was more than 10000 nM. Same read-out and setting: to `Cc1c2ccc(N(C)c3ccnc(Nc4ccc(-c5ccc(-c6nc7c(C(N)=O)cccc7[nH]6)cc5)cc4)n3)cc2nn1C` belongs more than 10000 nM. In the case of `Cc1c2ccc(N(C)c3ccnc(Nc4ccc(-c5nc6ccccc6[nH]5)c(C(F)(F)F)c4)n3)cc2nn1C`, the IC50 is more than 10000 nM. On the same count and under the same terms, to `CN(c1ccc(Cl)cc1)c1ccnc(Nc2ccc(-c3nc4cc(F)c(F)cc4[nH]3)cc2)n1` belongs more than 10000 nM; to `CN(c1ccc(N2CCOCC2)cc1)c1ccnc(Nc2ccc(-c3nc4c(C(N)=O)cccc4[nH]3)cc2)n1`, 8930 nM.

The subject of the next assay is HCC1937. The experiment in a line: Antiproliferative activity against human HCC1937 cells assessed as cell growth inhibition.
Conditions: not given
Regarding `O=C(c1cc(Cc2n[nH]c(=O)c3ccccc23)ccc1F)N1CCN(C(=O)C2CC2)CC1` [OLAPARIB], the concentration for half-maximal inhibition (IC50) worked out at 6510 nM.

The test system of the next assay is MDA-MB-436. The assay is described as follows: Antiproliferative activity against human MDA-MB-436 cells assessed as cell growth inhibition.
Conditions: not given
In the case of `O=C(c1cc(Cc2n[nH]c(=O)c3ccccc23)ccc1F)N1CCN(C(=O)C2CC2)CC1` [OLAPARIB], the IC50 was 9000 nM.

The target of the next assay is T1, Poly [ADP-ribose] polymerase 1.
Experiment: not given
Conditions: MDA-MB-231, dose 50.0 mg/kg, route po, time 14.0 day.
As to `O=C(c1cc(Cc2n[nH]c(=O)c3ccccc23)ccc1F)N1CCN(C(=O)C2CC2)CC1` [OLAPARIB], the inhibition entry is “Active”.

A further assay deals with HCC1937. The experiment in a line: cells. Conditions: Homo sapiens.
Take `O=C(c1cc(Cc2n[nH]c(=O)c3ccccc23)ccc1F)N1CCN(C(=O)C2CC2)CC1` [OLAPARIB]: the IC50 was more than 10000 nM.

For a further assay, the system named is MDA-MB-436. The experiment in a line: cells. Conditions: Homo sapiens.
Take `O=C(c1cc(Cc2n[nH]c(=O)c3ccccc23)ccc1F)N1CCN(C(=O)C2CC2)CC1` [OLAPARIB]: the IC50 is more than 10000 nM.

The next assay has as its system MDA-MB-231. The experiment in a line: cells. Conditions: Homo sapiens.
For the compound `O=C(c1cc(Cc2n[nH]c(=O)c3ccccc23)ccc1F)N1CCN(C(=O)C2CC2)CC1` [OLAPARIB], the IC50 was more than 10000 nM.

In the next assay the test system is MCF7. The assay is described as follows: cells. Conditions: Homo sapiens.
For the compound `O=C(c1cc(Cc2n[nH]c(=O)c3ccccc23)ccc1F)N1CCN(C(=O)C2CC2)CC1` [OLAPARIB], the IC50 was more than 10000 nM.

In a further assay the test system is HUVEC. The experiment in a line: cells. Conditions: Homo sapiens, 48 h.
Take `O=C(c1cc(Cc2n[nH]c(=O)c3ccccc23)ccc1F)N1CCN(C(=O)C2CC2)CC1` [OLAPARIB]: the IC50 was 4600 nM.

What is called IC50 is the midpoint of a concentration-inhibition curve.
